Results published in PubChem BioAssay AID1963838 (Molecular Pharmacology Branch, DTP, NCI, 2024).

Tested on: 855422-203-R-J1-PDC complex spheroid viability
Assay: Anticancer human tumor 855422-203-R-J1-PDC patient-derived bladder carcinoma cell line growth inhibition [POLQ]
Conditions: for IC50: curve of first compound; for viability, T/C: stronger effect = lower value
Description: Multicellular complex tumor spheroid response to Polymerase (POL) inhibitors (novobiocin, ART-558, RP6685) in combination with a variety of drugs and investigational agents in selected tumor cell lines
The POL inhibitors (novobiocin, ART-558, and RP6685) were evaluated both individually and in combination with standard of care and investigational anticancer small molecules within a complex spheroid model of solid tumors. . Complex spheroids include a stromal component modeled by human endothelial cells (HUVEC) and fibroblasts modeled by human mesenchymal stem cells (MSCs). The concentration ranges selected for each drug and investigational agent were based upon clinically achievable concentrations if the clinical Cmax of the agent was known.
Compounds. The drugs and investigational agents: novobiocin (NSC847541), ART-558 (NSC835418), RP-6685 (NSC848927), peposertib (NSC802822), ceralasertib (NSC780249), elimusertib (NSC800525), camonsertib (NSC841442), AZD-1390 (NSC803789), olaparib (NSC753686), talazoparib (NSC767125), rucaparib (NSC756644), sotorasib (NSC818433), MRTX-1133 (NSC836407), SN-38 (NSC673596), topotecan (NSC609699), epotoside (NSC141540), doxorubicin (NSC123127), gemcitabine (NSC613327), 5-fluorouracil (NSC19893), paclitaxel (NSC125973), vemurafenib (NSC761431), MSA-2 (NSC828583), SN-011 (NSC837082), adavosertib (NSC754352), prexasertib (NSC758257), carboplatin (NSC241240) and oxaliplatin (NSC266046), were obtained from the National Cancer Institute (NCI) Developmental Therapeutics Program Chemical Repository (21). The FDA-approved anticancer drug set is available from the Developmental Therapeutics Program at https://dtp.cancer.gov/organization/dscb/obtaining/. […] The stock solutions were prepared in dimethyl sulfoxide (DMSO, Sigma-Aldrich, St. Louis, MO, cat. D2650), except for the platinum compounds which were prepared in saline (Quality Biological, Gaithersburg, MD, cat. 114-055-101), at 800-fold the tested concentration and stored at -70 degrees C prior to their use. All drugs and investigational agents were tested over a range starting from a high concentration at or near the clinical Cmax and decreasing in half-log increments. If the clinical Cmax for an agent had not been determined, the highest concentration tested was 10 microM, except for SN-38, which was tested at a high concentration of 1 microM.
Cell Culture. All cells were maintained in an incubator at 37 degrees C and 5% CO2 with 95% humidity. The PDC lines were cultured according to standard operating procedures established by the NCI PDMR (https://pdmr.cancer.gov). Table 3 of the manuscript, lists the cell lines along with the number of the three cell types plated to form the mct-spheroids and media for tumor cell growth. After thawing, all PDC lines, except 997537-175-T-J1-PDC and 415267-285-R-J2-PDC, were cultured in Matrigel-coated flasks prepared with a working solution of 1X Ham's F-12 nutrient mix, without supplementation (Thermo Fisher Scientific, cat. 11765054), 100 U/mL penicillin-streptomycin (Thermo Fisher Scientific, cat. 15140122), and 2.5% Matrigel (Corning Inc., Corning, NY, cat. 354248) for the first three passages. The two PDC lines 997537-175-T-J1-PDC and 415267-285-R-J2-PDC were cultured on uncoated flasks. The 857933-349-R-J2-PDC line was cultured in 6C/Colon 1B media containing advanced DMEM/F-12 (Thermo Fisher Scientific, cat. 12634028), 10 mM HEPES (Thermo Fisher Scientific, cat. 15630080), 1X GlutaMAX supplement (Thermo Fisher Scientific, cat. 35050061), 0.1 mg/mL primocin (InvivoGen, San Diego, CA, cat. ant-pm-2), 10% defined fetal bovine serum, heat inactivated (HyClone Laboratories Inc., Logan, UT, cat. SH30070.03HI), 50% L-WRN conditioned media (ATCC, cat. CRL-3276), 1.25 mM N-Acetyl-L-cysteine (Sigma-Aldrich, cat. A9165), 10 mM nicotinamide (Sigma-Aldrich, cat. N0636), 1X B-27 supplement (Thermo Fisher Scientific, cat. 17504044), 1X N-2 supplement (Thermo Fisher Scientific, cat. […]

[1] = second compound 0.0316 µM, first compound 0.0316 µM
[2] = second compound 0.0316 µM, first compound 0.1 µM
[3] = second compound 0.1 µM, first compound 0.0316 µM
[4] = second compound 0.1 µM, first compound 0.1 µM
[5] = second compound 0.316 µM, first compound 0.0316 µM
[6] = second compound 0.316 µM, first compound 0.1 µM
[7] = second compound 1 µM, first compound 0.0316 µM
[8] = second compound 1 µM, first compound 0.1 µM
[9] = second compound 3.16 µM, first compound 0.0316 µM
[10] = second compound 3.16 µM, first compound 0.1 µM
[11] = second compound 10 µM, first compound 0.0316 µM
[12] = second compound 10 µM, first compound 0.1 µM
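Also: spheroids exposed to compounds for seven days before readout.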

With `C=CC(=O)N1CCN(c2nc(=O)n(-c3c(C)ccnc3C(C)C)c3nc(-c4c(O)cccc4F)c(F)cc23)C(C)C1` (centres undefined) + Nc1ccc(C#CCN(C(=O)Cc2ncc(C(F)(F)F)cc2C(F)(F)F)c2ccc(F)cc2)nn1 the IC50 (second compound 0.0316 µM) was greater than 10000 nM, the IC50 (second compound 0.1 µM) was greater than 10000 nM and the IC50 (second compound 0.316 µM) was greater than 10000 nM. The IC50 (second compound 1 µM) was greater than 10000 nM, the IC50 (second compound 3.16 µM) was greater than 10000 nM and the IC50 (second compound 10 µM) was greater than 10000 nM. The viability, T/C [1] was 101%, the viability, T/C [2] was 116% and the viability, T/C (second compound 0.0316 µM, first compound 0.316 µM) was 120%. The viability, T/C (second compound 0.0316 µM, first compound 1 µM) was 105%, the viability, T/C (second compound 0.0316 µM, first compound 3.16 µM) was 144% and the viability, T/C (second compound 0.0316 µM, first compound 10 µM) was 214%. The viability, T/C [3] was 99%, the viability, T/C [4] was 137% and the viability, T/C (second compound 0.1 µM, first compound 0.316 µM) was 107%. For the same compound, the viability, T/C (second compound 0.1 µM, first compound 1 µM) was 121%, the viability, T/C (second compound 0.1 µM, first compound 3.16 µM) was 159% and the viability, T/C (second compound 0.1 µM, first compound 10 µM) was 235%. It also gave a viability, T/C [5] of 126%, a viability, T/C [6] of 129% and a viability, T/C (second compound 0.316 µM, first compound 0.316 µM) of 121%. For the same compound, the viability, T/C (second compound 0.316 µM, first compound 1 µM) was 122%, the viability, T/C (second compound 0.316 µM, first compound 3.16 µM) was 146% and the viability, T/C (second compound 0.316 µM, first compound 10 µM) was 176%. The viability, T/C [7] was 99.4%, the viability, T/C [8] was 113% and the viability, T/C (second compound 1 µM, first compound 0.316 µM) was 92.2%. For the same compound, the viability, T/C (second compound 1 µM, first compound 1 µM) was 158%, the viability, T/C (second compound 1 µM, first compound 3.16 µM) was 120% and the viability, T/C (second compound 1 µM, first compound 10 µM) was 173%. It also gave a viability, T/C [9] of 103%, a viability, T/C [10] of 121% and a viability, T/C (second compound 3.16 µM, first compound 0.316 µM) of 97.2%. It also gave a viability, T/C (second compound 3.16 µM, first compound 1 µM) of 129%, a viability, T/C (second compound 3.16 µM, first compound 3.16 µM) of 129% and a viability, T/C (second compound 3.16 µM, first compound 10 µM) of 175%. For the same compound, the viability, T/C [11] was 109%, the viability, T/C [12] was 108% and the viability, T/C (second compound 10 µM, first compound 0.316 µM) was 99.1%. For the same compound, the viability, T/C (second compound 10 µM, first compound 1 µM) was 117%, the viability, T/C (second compound 10 µM, first compound 3.16 µM) was 113% and the viability, T/C (second compound 10 µM, first compound 10 µM) was 124%.
Work on `CC[C@@]1(O)C(=O)OCc2c1cc1n(c2=O)Cc2cc3c(CN(C)C)c(O)ccc3nc2-1` + Nc1ccc(C#CCN(C(=O)Cc2ncc(C(F)(F)F)cc2C(F)(F)F)c2ccc(F)cc2)nn1 yielded an IC50 (second compound 0.0316 µM) of 57.2 nM, an IC50 (second compound 0.1 µM) of 66.7 nM and an IC50 (second compound 0.316 µM) of 62 nM. It also gave an IC50 (second compound 1 µM) of 59.7 nM, an IC50 (second compound 3.16 µM) of 66.4 nM and an IC50 (second compound 10 µM) of 64 nM. It also gave a viability, T/C (second compound 0.0316 µM, first compound 0.000316 µM) of 89.5%, a viability, T/C (second compound 0.0316 µM, first compound 0.001 µM) of 111% and a viability, T/C (second compound 0.0316 µM, first compound 0.00316 µM) of 101%. For the same compound, the viability, T/C (second compound 0.0316 µM, first compound 0.01 µM) was 89.6%, the viability, T/C [1] was 86.9% and the viability, T/C [2] was 16.9%. It also gave a viability, T/C (second compound 0.1 µM, first compound 0.000316 µM) of 83.8%, a viability, T/C (second compound 0.1 µM, first compound 0.001 µM) of 129% and a viability, T/C (second compound 0.1 µM, first compound 0.00316 µM) of 102%. For the same compound, the viability, T/C (second compound 0.1 µM, first compound 0.01 µM) was 98.4%, the viability, T/C [3] was 99.3% and the viability, T/C [4] was 23.3%. For the same compound, the viability, T/C (second compound 0.316 µM, first compound 0.000316 µM) was 91.8%, the viability, T/C (second compound 0.316 µM, first compound 0.001 µM) was 99% and the viability, T/C (second compound 0.316 µM, first compound 0.00316 µM) was 91.8%. For the same compound, the viability, T/C (second compound 0.316 µM, first compound 0.01 µM) was 101%, the viability, T/C [5] was 97.1% and the viability, T/C [6] was 17.1%. It also gave a viability, T/C (second compound 1 µM, first compound 0.000316 µM) of 94.6%, a viability, T/C (second compound 1 µM, first compound 0.001 µM) of 88.5% and a viability, T/C (second compound 1 µM, first compound 0.00316 µM) of 109%. The viability, T/C (second compound 1 µM, first compound 0.01 µM) was 114%, the viability, T/C [7] was 83% and the viability, T/C [8] was 23.1%. For the same compound, the viability, T/C (second compound 3.16 µM, first compound 0.000316 µM) was 92.8%, the viability, T/C (second compound 3.16 µM, first compound 0.001 µM) was 106% and the viability, T/C (second compound 3.16 µM, first compound 0.00316 µM) was 99.4%. For the same compound, the viability, T/C (second compound 3.16 µM, first compound 0.01 µM) was 117%, the viability, T/C [9] was 102% and the viability, T/C [10] was 21.3%. It also gave a viability, T/C (second compound 10 µM, first compound 0.000316 µM) of 98.7%, a viability, T/C (second compound 10 µM, first compound 0.001 µM) of 93.7% and a viability, T/C (second compound 10 µM, first compound 0.00316 µM) of 97%. It also gave a viability, T/C (second compound 10 µM, first compound 0.01 µM) of 100%, a viability, T/C [11] of 95.3% and a viability, T/C [12] of 21.2%.
